pIC50: −log10 of the molar value.
Key:
Homo sapiens [1] = organism: Homo sapiens; assay: Selectivity index, ratio of IC50 for human A1 adenosine receptor expressed in CHO cell membranes to IC50 for human A2B adenosine receptor expressed in HEK293 cell membranes; type: cell-based
[2] = Intrinsic clearance in rat hepatocytes by MS/MS analysis; type: ADME, cell-based, Hepatocyte; conditions: read-out: CLH (converted)
Homo sapiens [3] = organism: Homo sapiens; assay: Selectivity index, ratio of IC50 for human A3 adenosine receptor expressed in HEK293 cell membranes to IC50 for human A2B adenosine receptor expressed in HEK293 cell membranes; type: cell-based
Adenosine receptor A2b = molecular target: T1, Adenosine receptor A2b (Homo sapiens, UniProt P29275); assay: Displacement of [3H]DPCPX from human A2B adenosine receptor expressed in HEK293 cell membranes after 60 mins by radioligand displacement assay
T1 sequence (P29275 whole entry): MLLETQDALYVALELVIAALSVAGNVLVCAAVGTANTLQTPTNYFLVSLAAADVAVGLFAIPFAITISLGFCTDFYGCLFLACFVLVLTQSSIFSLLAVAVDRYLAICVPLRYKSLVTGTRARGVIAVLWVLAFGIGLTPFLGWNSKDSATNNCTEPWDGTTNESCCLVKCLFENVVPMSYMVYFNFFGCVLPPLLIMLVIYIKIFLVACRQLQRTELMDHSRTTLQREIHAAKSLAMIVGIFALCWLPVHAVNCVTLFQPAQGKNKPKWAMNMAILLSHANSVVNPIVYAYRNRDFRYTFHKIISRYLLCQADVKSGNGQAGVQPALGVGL

Homo sapiens [4] = organism: Homo sapiens; assay: Selectivity index, ratio of IC50 for human A2A adenosine receptor expressed in HEK293 cell membranes to IC50 for human A2B adenosine receptor expressed in HEK293 cell membranes; type: cell-based

| SMILES | Ratio IC50 (Homo sapiens [1]) | predicted hepatic clearance [2] [mL/min/kg] | Ratio IC50 (Homo sapiens [3]) | pIC50 (Adenosine receptor A2b) | Ratio IC50 (Homo sapiens [4]) |
| --- | --- | --- | --- | --- | --- |
| Cc1csc2[nH]c(=O)n(CCc3ccccc3)c(=O)c12 | 6 | 58.3 | 14 | 6.32 |  |
| COCCn1c(=O)n(CCc2ccccc2)c(=O)c2c(C)c(C(=O)N3CC(O)C3)sc21 |  | 61.7 |  | 6.70 |  |
| COCCn1c(=O)n(CCc2ccccc2)c(=O)c2c(C)c(C(=O)c3cn(C)cn3)sc21 | 4 |  | 35 | 6.72 | 9 |
| CCN(CC(C)(C)O)C(=O)c1sc2c(c1C)c(=O)n(CC)c(=O)n2CCC(F)(F)F | 11 | 35 | 170 | 7.41 | 19 |
| CCN(CC)C(=O)c1sc2c(c1C)c(=O)n(CCOC)c(=O)n2CCC(F)(F)F | 22 | 60 | 68 | 7.01 | 0.83 |
| Cc1csc2c1c(=O)n(CCc1cccnc1)c(=O)n2CCC(F)(F)F | 40 | 66.7 | 120 | 7.26 | 21 |
| COCCn1c(=O)n(Cc2ccccc2)c(=O)c2c(C)csc21 | 1 |  | 1 | < 5.00 | 1 |
| COCCn1c(=O)n(CCc2ccccc2)c(=O)c2c(C)c(Cc3nc[nH]c3C)sc21 | 93 | 66.7 | 2800 | 8.62 | 180 |
| COCCn1c(=O)n(CCc2ccccc2)c(=O)c2c(C)c(CN3CCOCC3)sc21 | 1 |  | 9 | 6.12 | 7 |
| COCCn1c(=O)n(CCc2ccccc2)c(=O)c2c(C)c(C(=O)N(C)OC)sc21 | 9 |  | 17 | 6.41 | 4 |
| COCCn1c(=O)n(CCc2ccccc2)c(=O)c2c(C)c(C(C)(O)c3cncn3C)sc21 (stereo not drawn) | 2 |  | 6 | 5.92 | 3 |
| COCCn1c(=O)n(CCc2ccccc2)c(=O)c2c(C)c(C(=O)c3ccccc3)sc21 | 0.6 |  |  | 5.64 | 3 |
| COCCn1c(=O)n(CCc2ccccc2)c(=O)c2c(C)c(C(F)(F)c3ccccc3)sc21 | 0.36 |  | 2 | 5.55 | 3 |
| Cc1csc2c1c(=O)n(CCc1ccccc1)c(=O)n2Cc1nc2cc(S(N)(=O)=O)ccc2o1 | 0.83 |  | 6 | 5.96 | 2 |
| Cc1csc2c1c(=O)n(CCc1ccccc1F)c(=O)n2CCC(F)(F)F | 36 | 68.3 | 91 | 7.14 | 86 |
| COCCn1c(=O)n(CCc2ccccc2)c(=O)c2c(C)c(CO)sc21 | 11 |  | 43 | 6.82 | 40 |
| Cc1csc2c1c(=O)n(CCc1ccccc1)c(=O)n2Cc1cnc[nH]1 | 3 | 46.7 | 5 | 5.89 | 8 |
| COCCn1c(=O)n(CCc2ccccc2)c(=O)c2c(C)c(C(=O)O)sc21 | 5 | 55 |  | 5.68 | 5 |
| COCCn1c(=O)n(CCc2ccccc2)c(=O)c2c(C)csc21 | 9 | 66.7 | 22 | 6.52 | 37 |
| COCCn1c(=O)n(CCN2CCS(=O)(=O)CC2)c(=O)c2c(C)csc21 | 1 |  | 1 | < 5.00 | 1 |
| COCCn1c(=O)n(CCc2ccccc2)c(=O)c2c(C)c(Cc3c[nH]c(C)n3)sc21 | 110 | 61.7 | 750 | 8.06 | 510 |
| COCCn1c(=O)n(CCc2ccccc2)c(=O)c2c(C)c(CN3CCCC3)sc21 |  | 61.7 |  | 6.70 |  |
| COCCn1c(=O)n(CCc2ccccc2)c(=O)c2c(C)c(C(C)(O)C3CC3)sc21 (stereo not drawn) | 2 | 66.7 | 45 | 6.82 | 6 |
| COCCn1c(=O)n(CCc2ccccc2)c(=O)c2c(C)c(C(N)=O)sc21 | 8 | 65 | 16 | 6.37 | 18 |
| Cc1csc2c1c(=O)n(CCc1ccccc1)c(=O)n2CC1CCCO1 (stereo in doubt; 7) | 46 |  | 37 |  | 62 |
| Cc1csc2c1c(=O)n(CCc1ccccc1)c(=O)n2CC#N |  |  |  | 6.89 |  |
| COCCn1c(=O)n(CCc2ccccc2)c(=O)c2c3c(sc21)CCCC3 | 3 |  | 13 | 6.31 |  |

| SMILES | Ratio IC50 (Homo sapiens [1]) | predicted hepatic clearance [2] [mL/min/kg] | Ratio IC50 (Homo sapiens [3]) | pIC50 (Adenosine receptor A2b) | Ratio IC50 (Homo sapiens [4]) |
| --- | --- | --- | --- | --- | --- |
| COCCn1c(=O)n(CCc2ccccc2)c(=O)c2c(C)c(Cn3ccnc3)sc21 | 33 | 58.3 | 530 | 7.92 | 120 |
| COCCn1c(=O)n(CCc2ccccc2)c(=O)c2c(C)c(Cc3ccccc3)sc21 | 0.19 |  |  | 6.27 | 4 |
| COCCn1c(=O)n(CCc2ccccc2)c(=O)c2c(C)c(-c3ccccc3)sc21 | 0.65 |  | 1 | 5.31 | 2 |
| COCCn1c(=O)n(CCc2ccccc2)c(=O)c2ccsc21 | 2 |  | 1 | 5.33 | 2 |
| Cc1csc2c1c(=O)n(CCc1ccccc1)c(=O)n2Cc1nccn1C | 4 |  | 46 | 6.84 | 21 |
| COCCn1c(=O)n(CC(C)(C)C)c(=O)c2c(C)csc21 | 7 |  | 4 | 5.80 | 7 |
| COCCn1c(=O)n(CC=C(F)F)c(=O)c2c(C)csc21 | 2 |  |  | 5.31 | 2 |
| COCCn1c(=O)n(CCc2ccccc2)c(=O)c2c(C)c(Cl)sc21 | 3 |  |  | 5.48 | 3 |
| Cc1csc2c1c(=O)n(CCc1ccccc1)c(=O)n2Cc1ncc[nH]1 | 11 |  | 51 | 6.89 | 35 |
| Cc1csc2c1c(=O)n(CCc1ccccc1)c(=O)n2CC(=O)Nc1cc(Cl)ccc1C(=O)O |  |  |  | < 5.00 |  |
| COCCn1c(=O)n(CCc2ccccc2)c(=O)c2c3c(sc21)CCC3 | 16 |  | 69 | 7.01 |  |
| CCn1c(=O)c2c(C)csc2n(CCOC)c1=O | 6 |  | 10 | 6.19 | 11 |
| Cc1csc2c1c(=O)n(CCc1ccccc1)c(=O)n2CCF |  |  |  | 6.87 |  |
| COCCn1c(=O)n(CCc2ccccc2)c(=O)c2c(C)c(C)sc21 | 12 |  | 33 | 6.70 |  |
| Cc1csc2c1c(=O)n(CCc1ccccc1)c(=O)n2CC1CCCO1 (racemic) | 13 |  | 13 |  | 21 |
| COCCn1c(=O)n(CCc2ccccc2)c(=O)c2c(C)c(C(=O)C3CC3)sc21 | 0.57 |  | 8 | 6.10 | 1 |
| COCCn1c(=O)n(CC(F)(F)c2ccccc2)c(=O)c2c(C)csc21 | 9 | 66.7 |  | 6.36 | 25 |
| CCOC(=O)c1sc2c(c1C)c(=O)n(CCc1ccccc1)c(=O)n2CCOC | 2 |  | 4 | 5.77 | 6 |
| COCCn1c(=O)n(CCC2CCOCC2)c(=O)c2c(C)csc21 | 1 |  | 1 | < 5.00 | 1 |
| CCn1c(=O)c2c(C)c(C)sc2n(CCOC)c1=O | 9 |  | 15 | 6.36 | 8 |
| COCCn1c(=O)n(CCc2ccccc2F)c(=O)c2c(C)csc21 |  |  |  | 6.68 |  |
| COCCn1c(=O)n(CCc2ccccc2)c(=O)c2c(C)c(COC3CCCC3)sc21 | 4 |  | 27 | 6.60 | 7 |
| CCn1c(=O)c2c3c(sc2n(CCOC)c1=O)CCC3 | 18 |  | 30 | 6.66 | 11 |
| CCn1c(=O)c2c3c(sc2n(CCOC)c1=O)CCCC3 | 5 |  | 17 | 6.41 | 3 |
| COCCn1c(=O)n(CCc2ccccc2)c(=O)c2c(C)c(C(=O)N3CCCC3)sc21 |  |  |  | 6.59 |  |
| COCCn1c(=O)n(CC2(c3ccccc3)CC2)c(=O)c2c(C)csc21 | 1 |  |  | 5.82 | 7 |
| Cc1csc2c1c(=O)n(CCc1ccccc1)c(=O)n2CCc1ccc(S(N)(=O)=O)cc1 | 2 |  | 4 | 5.77 | 6 |
